Experimental data reported in article PMC3445454, “Broad and Cross-Clade CD4^+ T-Cell Responses Elicited by a DNA Vaccine Encoding Highly Conserved and Promiscuous HIV-1 M-Group Consensus Peptides” (PLoS ONE, 2012).
Positions count from the first letter of the chain named. pIC50: −log10 of the molar value.

What was measured:
[1] = test system: splenocytes from HIVBr27 immunized mice; assay: murine IFN-γ ELISPOT assay; format: in vivo; details: splenocytes of HIVBr27-immunized BALB/c mice, 5 µM peptide
Protocol: Six to eight week-old female BALB/c mice were used in this study. Six mice per group were injected intramuscularly, at weeks 0, 2 and 4, with HIVBr27 plasmid or empty pVAX1. Each quadriceps was injected with 50 µL of DNA at a concentration of 1 µg/µL in saline such that each animal received a total of 100 µg of plasmid DNA per immunization. Two weeks after the last DNA immunization, mice were euthanized with CO2.
Two weeks after the last immunization, mice were euthanized and spleens were removed aseptically. After obtaining single cell suspensions, cells were washed in 10 mL of RPMI 1640. Cells were then resuspended in R-10 (RPMI supplemented with 10% of fetal bovine serum (GIBCO), 2 mM L-glutamine (Life Technologies), 1 mM sodium pyruvate (Life Technologies), 1% vol/vol non-essential amino acids solution (Life Technologies), 1% vol/vol vitamin solution (Life Technologies), […] of Gentamicin, […] of Peflacin and 5×10^−5 M 2β-mercaptoetanol (Life Technologies). The viability of cells was evaluated using 0.2% Trypan Blue exclusion dye to discriminate between live and dead cells. Cell concentration was estimated with the aid of a Neubauer chamber and adjusted in cell culture medium. […]

HLA-DR DRB3*01:01 = HLA-DR DRB3*01:01 (Homo sapiens, UniProt P01903+P79483); assay: biochemical; format: binding
HLA-DR DRB5*01:01 = HLA-DR DRB5*01:01 (Homo sapiens, UniProt P01903+Q30154); assay: biochemical; format: binding
[2] = target: T1, HLA-DP DPA1*01:03/DPB1*02:01 (Homo sapiens, UniProt P04440+P20036, A65V/A84D/A85E/K98E); assay: biochemical; format: binding
T1 sequence (P20036 29-260): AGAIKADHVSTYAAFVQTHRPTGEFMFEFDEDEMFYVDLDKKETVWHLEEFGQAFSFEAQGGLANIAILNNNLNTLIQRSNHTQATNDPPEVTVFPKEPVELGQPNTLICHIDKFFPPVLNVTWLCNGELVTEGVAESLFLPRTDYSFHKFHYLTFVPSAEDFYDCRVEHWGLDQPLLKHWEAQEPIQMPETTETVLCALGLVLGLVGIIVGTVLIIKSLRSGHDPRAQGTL
T1 sequence (P04440 30-258 A65V/A84D/A85E/K98E): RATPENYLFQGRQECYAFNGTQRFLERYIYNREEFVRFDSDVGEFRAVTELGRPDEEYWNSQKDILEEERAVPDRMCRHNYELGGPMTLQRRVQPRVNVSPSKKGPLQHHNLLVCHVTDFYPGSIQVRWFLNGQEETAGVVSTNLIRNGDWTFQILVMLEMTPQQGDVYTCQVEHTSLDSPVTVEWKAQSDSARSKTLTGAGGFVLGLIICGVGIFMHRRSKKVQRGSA

[3] = target: T2, HLA-DP DPA1*01:03/DPB1*03:01 (Homo sapiens, UniProt P04440+P20036, A65V/A84D/A85E/E86D/F38Y/G113D/G114E/G40L/I94L/L37V/M105V/M116V/P115A/R125K/T199I); assay: biochemical; format: binding; details: read-out: Binding capacity/IC50 (nM) DPA1*01:03 DPB1*03:01
T2 sequence (P20036 29-260): T1 sequence (P20036 29-260)
T2 sequence (P04440 30-258 L37V/F38Y/G40L/A65V/A84D/A85E/E86D/I94L/M105V/G113D/G114E/P115A/M116V/R125K/T199I): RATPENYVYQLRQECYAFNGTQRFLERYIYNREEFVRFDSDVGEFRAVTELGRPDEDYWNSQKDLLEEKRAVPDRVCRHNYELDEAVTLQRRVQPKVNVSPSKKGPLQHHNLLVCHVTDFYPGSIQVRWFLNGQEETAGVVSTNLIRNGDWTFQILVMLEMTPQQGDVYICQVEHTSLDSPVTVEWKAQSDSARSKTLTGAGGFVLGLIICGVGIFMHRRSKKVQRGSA

[4] = target: HLA-DP DPA1*02:01/DPB1*01:01 (Homo sapiens, UniProt P04440+P20036, F191V/F38Y/F64Y/G113D/G114E/K142R/L158P/L37V/M105V/M116V/M62Q/P115A/Q81R/R125K/R223Q/T114A/T199I/T259P); assay: biochemical
[5] = target: HLA-DP DPA1*03:01/DPB1*04:02 (Homo sapiens, UniProt P04440+P20036, A42M/A65V/A84D/A85E/L207M/L97S); assay: biochemical
[6] = target: T3, HLA-DP DPA1*02:01/DPB1*14:01 (Homo sapiens, UniProt P04440+P20036, A65V/A84D/A85E/E86D/F191V/F38H/G113D/G114E/G40L/I94L/K142R/L158P/L37V/M105V/M116V/M62Q/P115A/Q81R/R125K/T114A/T199I/T259P); assay: biochemical; format: binding; details: read-out: Binding capacity/IC50 (nM) DPA1*02:01 DPB1*14:01
T3 sequence (P20036 29-260 A42M/M62Q/Q81R/T114A/K142R/L158P/F191V/T259P): T1 sequence (P20036 29-260) with A14M, M34Q, Q53R, T86A, K114R, L130P, F163V, T231P
T3 sequence (P04440 30-258 L37V/F38H/G40L/A65V/A84D/A85E/E86D/I94L/M105V/G113D/G114E/P115A/M116V/R125K/T199I/R223Q): T2 sequence (P04440 30-258 L37V/F38Y/G40L/A65V/A84D/A85E/E86D/I94L/M105V/G113D/G114E/P115A/M116V/R125K/T199I) with Y9H, R194Q

[7] = target: T4, HLA-DP DPA1*01:03/DPB1*20:01 (Homo sapiens, UniProt P04440+P20036, A65V/A84D/A85E/E86D/F38Y/G113D/G114E/G40L/I94L/L37V/M116V/P115A/R125K/T199I); assay: biochemical; format: binding; details: read-out: Binding capacity/IC50 (nM) DPA1*01:03 DPB1*20:01
T4 sequence (P20036 29-260): T1 sequence (P20036 29-260)
T4 sequence (P04440 30-258 L37V/F38Y/G40L/A65V/A84D/A85E/E86D/I94L/G113D/G114E/P115A/M116V/R125K/T199I/V234M): T2 sequence (P04440 30-258 L37V/F38Y/G40L/A65V/A84D/A85E/E86D/I94L/M105V/G113D/G114E/P115A/M116V/R125K/T199I) with V76M, V205M

[8] = target: T5, HLA-DP DPA1*02:01/DPB1*05:01 (Homo sapiens, UniProt P04440+P20036, A65V/A84E/F191V/F64L/G113D/G114E/K142R/L158P/M116V/M62Q/P115A/Q81R/R125K/T114A/T199I/T259P/V234M); assay: biochemical; format: binding; details: read-out: Binding capacity/IC50 (nM) DPA1*02:01 DPB1*05:01
T5 sequence (P20036 29-260 A42M/M62Q/Q81R/T114A/K142R/L158P/F191V/T259P): T1 sequence (P20036 29-260) with A14M, M34Q, Q53R, T86A, K114R, L130P, F163V, T231P
T5 sequence (P04440 30-258 F64L/A65V/A84E/G113D/G114E/P115A/M116V/R125K/T199I/V234M): T2 sequence (P04440 30-258 L37V/F38Y/G40L/A65V/A84D/A85E/E86D/I94L/M105V/G113D/G114E/P115A/M116V/R125K/T199I) with V8L, Y9F, L11G, F35L, D55E, E56A, D57E, L65I, V76M, V205M

[9] = target: T6, HLA-DP DPA1*01:03/DPB1*04:01 (Homo sapiens, UniProt P04440+P20036); assay: biochemical; format: binding
T6 sequence (P20036 29-260): T1 sequence (P20036 29-260)
T6 sequence (P04440 30-258): T1 sequence (P04440 30-258 A65V/A84D/A85E/K98E) with V36A, D55A, E56A, E69K

Sequence of HLA-DP DPA1*02:01/DPB1*01:01 (P20036 29-260 A42M/M62Q/Q81R/T114A/K142R/L158P/F191V/T259P, other chains not shown): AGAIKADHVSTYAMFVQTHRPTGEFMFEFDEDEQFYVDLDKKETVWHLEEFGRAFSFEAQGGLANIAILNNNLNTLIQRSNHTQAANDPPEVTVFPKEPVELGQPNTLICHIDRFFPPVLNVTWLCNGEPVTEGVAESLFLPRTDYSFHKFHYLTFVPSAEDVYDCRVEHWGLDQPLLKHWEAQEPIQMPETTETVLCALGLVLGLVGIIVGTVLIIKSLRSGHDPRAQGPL

## EWEYVNTPPLVKLWY [RT(413-427) D subtype]
[1]
  IFN-γ secretion against variant compared to M-group consensus peptide: reduced

## CSCC[C@H](NC(=O)[C@@H]1CCCN1C(=O)[C@H](CCCNC(=N)N)NC(=O)[C@H](CC(C)C)NC(=O)[C@@H]1CCCN1C(=O)[C@@H](NC(=O)[C@H](CCC(N)=O)NC(=O)[C@@H]1CCCN1C(=O)[C@H](CCCNC(=N)N)NC(=O)[C@@H](NC(=O)[C@@H]1CCCN1C(=O)[C@H](Cc1ccccc1)NC(=O)CN)C(C)C)C(C)C)C(=O)N[C@H](C(=O)N[C@@H](Cc1ccc(O)cc1)C(=O)N[C@@H](CCCCN)C(=O)NCC(=O)N[C@@H](C)C(=O)N[C@@H](Cc1ccccc1)C(=O)N[C@@H](CC(=O)O)C(=O)N[C@@H](CC(C)C)C(N)=O)[C@@H](C)O [nef(67-87)]
HLA-DR DRB3*01:01
  pIC50: 5.20
HLA-DR DRB5*01:01
  pIC50: 6.72

## EWEFVSTPPLVKLWY [RT(413-427) B subtype]
[1]
  IFN-γ secretion against variant compared to M-group consensus peptide: reduced

## CC[C@H](C)[C@H](NC(=O)[C@H](CCSC)NC(=O)[C@@H](NC(=O)[C@H](CCC(N)=O)NC(=O)[C@H](Cc1c[nH]c2ccccc12)NC(=O)[C@H](CCCNC(=N)N)NC(=O)[C@H](CC(N)=O)NC(=O)[C@H](CCC(=O)O)NC(=O)[C@@H](N)CCSC)C(C)C)C(=O)N[C@H](C(=O)N[C@@H](Cc1c[nH]c2ccccc12)C(=O)N[C@@H](CCC(N)=O)C(=O)N[C@H](C(=O)N[C@@H](CC(=O)O)C(=O)N[C@@H](CCCNC(=N)N)C(N)=O)C(C)C)C(C)C [vif(1-15)]
[2]
  pIC50: 5.81
[3]
  IC50: 5840 nM
[4]
  pIC50: 5.99
[5]
  pIC50: 5.43
[6]
  IC50: 7240 nM
[7]
  IC50: 364 nM
[8]
  IC50: 8170 nM
[9]
  pIC50: 7.89
